What follows are compounds tested on HBV (assay: HepAD38 antiviral assay: reduction of viral product accumulation (virion DNA by qPCR, HBsAg or HBeAg by ELISA)). Settings: Hepatitis B virus, 120 h; HepAD38 cells, five days after compound addition; 50% reduction of viral product accumulation relative to no drug controls; read-out: HepAD38 EC50.
Format: cell-based
Procedure: Methods: HepAD38 cells are maintained as previously reported (Ladner et al, Antimicrob. Agents Chemother. 1997, […], 1715). Briefly, cells are passaged upon attaining confluency in DMEM/F12 media in the presence of 10% FBS, Penn/Strep, 250 μg/mL G418, and 1 ug/ml tetracycline. Novel compounds are screened by first washing cells three times with PBS to remove tetracycline, and plating in 96 well plates at 35,000 cells/well. Compounds dissolved in DMSO are then diluted 1:200 into wells containing cells. Five days after compound addition, material is harvested for analysis. For an extended 8 day analysis, cells are plated and treated as described above, but media and compound are refreshed on d2 and d5 post initial treatment.
On harvest day, virion DNA is obtained by lysing with Sidestep Lysis and Stabilization Buffer and then quantified via quantitative real time PCR. Commercially available ELISA kits are used to quantitate the viral proteins HBsAg (Alpco) or HbeAg (US Biological) by following the manufacturer's recommended protocol after diluting samples to match the linear range of their respective assays. Irrespective of readout, compound concentrations that reduce viral product accumulation in the cell lysates or supernatants by 50% relative to no drug controls (EC50) are reported; EC50 ranges are as follows: A<1 μM; B 1-10 μM; C>10 μM.

**Q.** Which EC50 does the source give for O=S(=O)(c1cc(-c2nc(-c3ccc(Cl)c(C4CC4)c3)c[nH]2)ccc1Cl)N1CCC(O)CC1 [Example 17] here?
**A.** < 1 µM

**Q.** O=S(=O)(c1cc(-c2nc(-c3ccc(Br)c(F)c3)c[nH]2)ccc1Cl)N1CC[C@@H](O)[C@@H](O)CC1 [Example 19] was tested. Which EC50 did it give?
**A.** < 1 µM

**Q.** O=S(=O)(c1cc(-c2nc(-c3ccc(Br)c(F)c3)c[nH]2)ccc1Cl)N1CC[C@@H](O)[C@H](O)CC1 [Example 20] was tested. Which EC50 did it give?
**A.** < 1 µM

**Q.** With O=S(=O)(c1cc(-c2nc(-c3ccc(Br)c(F)c3)c[nH]2)ccc1Cl)N1C[C@@H](O)C[C@H]2C[C@H]2C1 [Example 34] as the compound, how does the EC50 read?
**A.** < 1 µM

**Q.** How did the EC50 turn out when O=S(=O)(c1cc(-c2nc(-c3cccs3)c[nH]2)ccc1Cl)N1CCC(O)CC1 [Example 70] was run?
**A.** 1 to 10 µM

**Q.** O=S(=O)(c1cc(-c2nc(-c3ccccc3Br)c[nH]2)ccc1Cl)N1CCC(O)CC1 [Example 74] was tested. Which EC50 did it give?
**A.** > 10 µM

**Q.** Which EC50 does the source give for O=S(=O)(c1cc(-c2nc(-c3ccccc3Cl)c[nH]2)ccc1Cl)N1CCC(O)CC1 [Example 75] here?
**A.** > 10 µM

**Q.** How did the EC50 turn out when O=S(=O)(c1cc(-c2nc(-c3ccc4ocnc4c3)c[nH]2)ccc1Cl)N1CCC(O)CC1 [Example 76] was run?
**A.** > 10 µM

**Q.** COCCN(C)S(=O)(=O)c1cc(-c2ncc(-c3ccc(F)c(Br)c3)[nH]2)ccc1Cl [Example 77] was tested. Which EC50 did it give?
**A.** > 10 µM

**Q.** How did the EC50 turn out when O=S(=O)(c1cc(-c2nc(-c3cc(F)c(F)c(Cl)c3)c[nH]2)ccc1Cl)N1CCC(O)CC1 [Example 78] was run?
**A.** > 10 µM

**Q.** For O=S(=O)(c1cc(-c2nc(-c3cscn3)c[nH]2)ccc1Cl)N1CCC(O)CC1 [Example 80], which EC50 is on record?
**A.** > 10 µM

**Q.** O=S(=O)(c1cc(-c2nc(-c3nccs3)c[nH]2)ccc1Cl)N1CCC(O)CC1 [Example 81] was tested. Which EC50 did it give?
**A.** > 10 µM

**Q.** O=S(=O)(c1cc(-c2nc(-c3ccc(F)cc3F)c[nH]2)ccc1Cl)N1CCC(O)CC1 [Example 84] was tested. Which EC50 did it give?
**A.** 1 to 10 µM

**Q.** How did the EC50 turn out when O=S(=O)(c1cc(-c2nc(-c3cccc(F)c3F)c[nH]2)ccc1Cl)N1CCC(O)CC1 [Example 85] was run?
**A.** > 10 µM

**Q.** Which EC50 does the source give for O=S(=O)(c1cc(-c2nc(-c3cc(F)cc(F)c3)c[nH]2)ccc1Cl)N1CCC(O)CC1 [Example 86] here?
**A.** 1 to 10 µM

**Q.** For COc1ccccc1-c1c[nH]c(-c2ccc(Cl)c(S(=O)(=O)N3CCC(O)CC3)c2)n1 [Example 88], which EC50 is on record?
**A.** 1 to 10 µM

**Q.** With Cc1ccc(-c2c[nH]c(-c3ccc(Cl)c(S(=O)(=O)N4CCC(O)CC4)c3)n2)cc1 [Example 96] as the compound, how does the EC50 read?
**A.** 1 to 10 µM

**Q.** With N#Cc1ccc(-c2c[nH]c(-c3ccc(Cl)c(S(=O)(=O)N4CCC(O)CC4)c3)n2)cc1 [Example 97] as the compound, how does the EC50 read?
**A.** < 1 µM

**Q.** For COc1ccc(-c2c[nH]c(-c3ccc(Cl)c(S(=O)(=O)N4CCC(O)CC4)c3)n2)cc1 [Example 98], which EC50 is on record?
**A.** 1 to 10 µM

**Q.** How did the EC50 turn out when O=S(=O)(c1cc(-c2nc(-c3ccc(C(F)(F)F)cc3)c[nH]2)ccc1Cl)N1CCC(O)CC1 [Example 99] was run?
**A.** > 10 µM

**Q.** CC(C)(C)CC(=O)NCCCNS(=O)(=O)c1cc(-c2nc(-c3ccc(Br)c(F)c3)c[nH]2)ccc1Cl [Example 141] was tested. Which EC50 did it give?
**A.** < 1 µM

**Q.** N#Cc1ccc(-c2c[nH]c(-c3ccc(Cl)c(S(=O)(=O)N4CCC(O)CC4)c3)n2)cc1Cl [Example 149] was tested. Which EC50 did it give?
**A.** < 1 µM

**Q.** N#Cc1cc(-c2c[nH]c(-c3ccc(Cl)c(S(=O)(=O)N4CCC(O)CC4)c3)n2)ccc1C(F)(F)F [Example 150] was tested. Which EC50 did it give?
**A.** < 1 µM

**Q.** How did the EC50 turn out when O=S(=O)(c1cc(-c2nc(-c3ccc(C(F)(F)F)c(Cl)c3)c[nH]2)ccc1Cl)N1CCC(O)CC1 [Example 151] was run?
**A.** < 1 µM

**Q.** O=S(=O)(c1cc(-c2nc(-c3ccc(Cl)c(C(F)(F)F)c3)c[nH]2)ccc1Cl)N1CCC(O)CC1 [Example 152] was tested. Which EC50 did it give?
**A.** < 1 µM

**Q.** With NS(=O)(=O)c1cc(-c2nc(-c3ccc(Br)c(F)c3)c[nH]2)ccc1Cl [Example 153] as the compound, how does the EC50 read?
**A.** 1 to 10 µM

**Q.** For N#Cc1ccc(-c2c[nH]c(-c3ccc(Cl)c(S(=O)(=O)N4CCC(O)CC4)c3)n2)cc1C(F)(F)F [Example 155], which EC50 is on record?
**A.** < 1 µM

**Q.** With N#Cc1cc(-c2c[nH]c(-c3ccc(Cl)c(S(=O)(=O)N4CCC(O)CC4)c3)n2)ccc1C1CC1 [Example 156] as the compound, how does the EC50 read?
**A.** 1 to 10 µM

**Q.** With O=S(=O)(c1cc(-c2nc(-c3ccc(C4CC4)c(Cl)c3)c[nH]2)ccc1Cl)N1CCC(O)CC1 [Example 157] as the compound, how does the EC50 read?
**A.** < 1 µM

**Q.** How did the EC50 turn out when CC(C)(C)c1ccc(-c2c[nH]c(-c3ccc(Cl)c(S(=O)(=O)N4CCC(O)CC4)c3)n2)cc1 [Example 158] was run?
**A.** < 1 µM

**Q.** With O=S(=O)(c1cc(-c2nc(-c3ccccc3O)c[nH]2)ccc1Cl)N1CCC(O)CC1 [Example 159] as the compound, how does the EC50 read?
**A.** 1 to 10 µM

**Q.** How did the EC50 turn out when C[C@H](N)C(=O)OC1CCN(S(=O)(=O)c2cc(-c3nc(-c4ccc(F)c(Br)c4)c[nH]3)ccc2Cl)CC1 [Example 160] was run?
**A.** 1 to 10 µM

**Q.** How did the EC50 turn out when O=S(=O)(c1cc(-c2nc(-c3ccc(C(F)(F)F)c(C4CC4)c3)c[nH]2)ccc1Cl)N1CCC(O)CC1 [Example 161] was run?
**A.** < 1 µM

**Q.** For CC(C)(C)c1cccc(-c2c[nH]c(-c3ccc(Cl)c(S(=O)(=O)N4CCC(O)CC4)c3)n2)c1 [Example 162], which EC50 is on record?
**A.** 1 to 10 µM

**Q.** With O=S(=O)(c1cc(-c2nc(-c3ccc(Br)c(F)c3)c[nH]2)ccc1Cl)N1CC2COCC2C1 (stereo not drawn) [Example 163] as the compound, how does the EC50 read?
**A.** < 1 µM

**Q.** COCC(C)NS(=O)(=O)c1cc(-c2nc(-c3ccc(Br)c(F)c3)c[nH]2)ccc1Cl (stereo not drawn) [Example 164] was tested. Which EC50 did it give?
**A.** 1 to 10 µM

**Q.** For O=C(c1ccccc1)N1CCN(S(=O)(=O)c2cc(-c3nc(-c4ccc(Br)c(F)c4)c[nH]3)ccc2Cl)CC1 [Example 165], which EC50 is on record?
**A.** 1 to 10 µM

**Q.** Which EC50 does the source give for O=C(Nc1ccccc1)C1CCN(S(=O)(=O)c2cc(-c3nc(-c4ccc(Br)c(F)c4)c[nH]3)ccc2Cl)CC1 [Example 166] here?
**A.** 1 to 10 µM

**Q.** Which EC50 does the source give for CC(C)(C)OC(=O)NC[C@@H]1[C@H]2CN(S(=O)(=O)c3cc(-c4ncc(-c5ccc(F)c(Br)c5)[nH]4)ccc3Cl)C[C@@H]12 [Example 167] here?
**A.** 1 to 10 µM

**Q.** For COC(=O)NC[C@@H]1[C@H]2CN(S(=O)(=O)c3cc(-c4ncc(-c5ccc(F)c(Br)c5)[nH]4)ccc3Cl)C[C@@H]12 [Example 168], which EC50 is on record?
**A.** < 1 µM

**Q.** Which EC50 does the source give for C[C@H](NC(=O)OC(C)(C)C)C(=O)OC1CCN(S(=O)(=O)c2cc(-c3nc(-c4ccc(F)c(Br)c4)c[nH]3)ccc2Cl)CC1 [Example 169] here?
**A.** < 1 µM

**Q.** Which EC50 does the source give for N#Cc1ccc(-c2c[nH]c(-c3ccc(Cl)c(S(=O)(=O)N4CCC(O)CC4)c3)n2)cc1C1CC1 [Example 170] here?
**A.** < 1 µM

**Q.** How did the EC50 turn out when O=S(=O)(c1cc(-c2nc(-c3ccc(C4CC4)c(C(F)(F)F)c3)c[nH]2)ccc1Cl)N1CCC(O)CC1 [Example 171] was run?
**A.** < 1 µM

**Q.** With COC(=O)NCCC(C)NS(=O)(=O)c1cc(-c2nc(-c3ccc(Br)c(F)c3)c[nH]2)ccc1Cl (stereo not drawn) [Example 172] as the compound, how does the EC50 read?
**A.** < 1 µM

**Q.** COC(=O)NCCCCNS(=O)(=O)c1cc(-c2nc(-c3ccc(Br)c(F)c3)c[nH]2)ccc1Cl [Example 173] was tested. Which EC50 did it give?
**A.** < 1 µM

**Q.** Which EC50 does the source give for CC(C)(C)OC(=O)NCCCCNS(=O)(=O)c1cc(-c2nc(-c3ccc(Br)c(F)c3)c[nH]2)ccc1Cl [Example 174] here?
**A.** < 1 µM

**Q.** How did the EC50 turn out when COC(=O)NCCCCCNS(=O)(=O)c1cc(-c2nc(-c3ccc(Br)c(F)c3)c[nH]2)ccc1Cl [Example 175] was run?
**A.** < 1 µM

**Q.** How did the EC50 turn out when CC(C)(C)OC(=O)NCCCCCNS(=O)(=O)c1cc(-c2nc(-c3ccc(Br)c(F)c3)c[nH]2)ccc1Cl [Example 176] was run?
**A.** < 1 µM

**Q.** COC(=O)OCCCNS(=O)(=O)c1cc(-c2nc(-c3ccc(Br)c(F)c3)c[nH]2)ccc1Cl [Example 177] was tested. Which EC50 did it give?
**A.** < 1 µM

**Q.** For COC(=O)N(C)CCCNS(=O)(=O)c1cc(-c2nc(-c3ccc(Br)c(F)c3)c[nH]2)ccc1Cl [Example 178], which EC50 is on record?
**A.** < 1 µM

Same assay, conditions: Hepatitis B virus, HePAD38, 120 h, read-out: HepAD38 EC50 (μM)

**Q.** O=C(NCCCNS(=O)(=O)c1cc(-c2nc(-c3ccc(Br)c(F)c3)c[nH]2)ccc1Cl)Oc1ccccc1 [Example 179] was tested. Which EC50 did it give?
**A.** < 1 µM

— patent US10442788B2, “Hepatitis B antiviral agents” (ENANTA PHARMACEUTICALS, INC., priority 2015, dated 2019)
